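Following 48 hours of exposure in 96-well plates, responses at five concentrations were used to interpolate endpoints linearly. Here, GI50 denotes the concentration required for 50% inhibition of growth.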 Calls of active or inactive are those of the source. Cut-off read from the data, not from the text of the source: active = GI50 up to about 1.1 µM and inactive = higher.
Experiments:
Experiment in all cases: NCI tumour cell line growth inhibition, 48 h
[1] = tested on: T47D
[2] = tested on: NCI-H522
[3] = tested on: TK-10
[4] = tested on: HT-29
[5] = tested on: SN12C
[6] = tested on: OVCAR-5
[7] = tested on: MOLT-4
[8] = tested on: SK-MEL-28
[9] = tested on: OVCAR-8
[10] = tested on: COLO 205
[11] = tested on: Hs-578T
[12] = tested on: SNB-75
[13] = tested on: NCI/ADR-RES
[14] = tested on: DU-145
[15] = tested on: BT-549
[16] = tested on: HCC 2998
[17] = tested on: HCT-116
[18] = tested on: EKVX
[19] = tested on: IGROV-1
[20] = tested on: SF-539
[21] = tested on: M14
[22] = tested on: SR
[23] = tested on: MDA-MB-435
[24] = tested on: RXF 393
[25] = tested on: U-251
[26] = tested on: HCT-15
[27] = tested on: SW-620
[28] = tested on: PC-3
[29] = tested on: UACC-62
[30] = tested on: SK-MEL-5
[31] = tested on: OVCAR-3
[32] = tested on: SK-MEL-2
[33] = tested on: RPMI-8226
[34] = tested on: NCI-H226
[35] = tested on: 786-0
[36] = tested on: HOP-92
[37] = tested on: HOP-62
[38] = tested on: SNB-19
[39] = tested on: CAKI-1
[40] = tested on: HL-60
[41] = tested on: KM12
[42] = tested on: Malme-3M
[43] = tested on: CCRF-CEM
[44] = tested on: OVCAR-4
[45] = tested on: NCI-H23
[46] = tested on: SF-295
[47] = tested on: UO-31
[48] = tested on: ACHN
[49] = tested on: LOX IMVI
[50] = tested on: A549
[51] = tested on: SF-268
[52] = tested on: UACC-257
[53] = tested on: K562
[54] = tested on: MCF7
[55] = tested on: NCI-H460
[56] = tested on: A498
[57] = tested on: MDA-MB-231
[58] = tested on: SK-OV-3

With `CCOC(=O)C1=C(C)N(Cc2ccc(Cl)cc2Cl)C2(O)C(OC)CC(=O)C3C(=O)N(c4ccccc4)C(=O)C132` (stereo not given) as the molecule, how does the GI50 [1] read?
Its GI50 is 244 nM (active).

And the GI50 [2]?
The GI50 was 2010 nM (inactive).

What about the GI50 [3] of the same molecule?
The GI50 was 10000 nM (inactive).

What about the GI50 [4] of the same molecule?
Its GI50 is 1750 nM (inactive).

And the GI50 [5]?
The GI50 was 2260 nM (inactive).

What about the GI50 [6] of the same molecule?
Its GI50 is 2410 nM (inactive).

And the GI50 [7]?
Its GI50 is 1790 nM (inactive).

And the GI50 [8]?
Its GI50 is 1970 nM (inactive).

And the GI50 [9]?
Its GI50 is 1950 nM (inactive).

And the GI50 [10]?
The GI50 was 3640 nM (inactive).

What about the GI50 [11] of the same molecule?
Its GI50 is 9060 nM (inactive).

And the GI50 [12]?
Its GI50 is < 10 nM (active).

And the GI50 [13]?
The GI50 was 2010 nM (inactive).

And the GI50 [14]?
Its GI50 is 1060 nM (active).

What about the GI50 [15] of the same molecule?
The GI50 was 1610 nM (inactive).

And the GI50 [16]?
The GI50 was 2080 nM (inactive).

And the GI50 [17]?
The GI50 was 1390 nM (inactive).

What about the GI50 [18] of the same molecule?
The GI50 was 3400 nM (inactive).

And the GI50 [19]?
The GI50 was 4340 nM (inactive).

What about the GI50 [20] of the same molecule?
Its GI50 is 2860 nM (inactive).

What about the GI50 [21] of the same molecule?
The GI50 was 2090 nM (inactive).

And the GI50 [22]?
Its GI50 is 1570 nM (inactive).

What about the GI50 [23] of the same molecule?
Its GI50 is 2630 nM (inactive).

And the GI50 [24]?
The GI50 was 1110 nM (active).

What about the GI50 [25] of the same molecule?
Its GI50 is 1500 nM (inactive).

What about the GI50 [26] of the same molecule?
The GI50 was 1360 nM.

And the GI50 [27]?
Its GI50 is 2520 nM (inactive).

And the GI50 [28]?
Its GI50 is 2640 nM (inactive).

What about the GI50 [29] of the same molecule?
The GI50 was 3130 nM (inactive).

And the GI50 [30]?
The GI50 was 3970 nM (inactive).

What about the GI50 [31] of the same molecule?
The GI50 was 1330 nM (inactive).

And the GI50 [32]?
The GI50 was 1280 nM (inactive).

What about the GI50 [33] of the same molecule?
Its GI50 is 1210 nM (inactive).

What about the GI50 [34] of the same molecule?
The GI50 was 3330 nM (inactive).

What about the GI50 [35] of the same molecule?
Its GI50 is 1470 nM (inactive).

And the GI50 [36]?
The GI50 was 54.1 nM (active).

What about the GI50 [37] of the same molecule?
Its GI50 is 995 nM (active).

What about the GI50 [38] of the same molecule?
Its GI50 is 2530 nM (inactive).

And the GI50 [39]?
Its GI50 is 6710 nM (inactive).

And the GI50 [40]?
Its GI50 is 2240 nM (inactive).

What about the GI50 [41] of the same molecule?
The GI50 was 2630 nM (inactive).

What about the GI50 [42] of the same molecule?
Its GI50 is 10600 nM (inactive).

What about the GI50 [43] of the same molecule?
The GI50 was 466 nM (active).

And the GI50 [44]?
Its GI50 is 1600 nM (inactive).

What about the GI50 [45] of the same molecule?
Its GI50 is 3460 nM (inactive).

And the GI50 [46]?
Its GI50 is 4430 nM (inactive).

And the GI50 [47]?
The GI50 was 4540 nM (inactive).

And the GI50 [48]?
Its GI50 is 3120 nM (inactive).

And the GI50 [49]?
Its GI50 is 1050 nM (active).

And the GI50 [50]?
Its GI50 is 2340 nM (inactive).

And the GI50 [51]?
The GI50 was 2260 nM (inactive).

And the GI50 [52]?
Its GI50 is 3520 nM (inactive).

And the GI50 [53]?
Its GI50 is 1110 nM (active).

What about the GI50 [54] of the same molecule?
Its GI50 is 1910 nM (inactive).

And the GI50 [55]?
Its GI50 is 2920 nM (inactive).

And the GI50 [56]?
Its GI50 is 10800 nM (inactive).

And the GI50 [57]?
Its GI50 is 1380 nM (inactive).

Which GI50 [1] does the source give for `COc1ccc(-c2cc(-c3ccccc3)nc3c2CC(=O)Nc2ccccc2-3)cc1OC` here?
The GI50 was > 68900 nM (inactive).

What about the GI50 [2] of the same molecule?
The GI50 was > 76700 nM (inactive).

What about the GI50 [3] of the same molecule?
Its GI50 is > 56100 nM (inactive).

What about the GI50 [4] of the same molecule?
The GI50 was 719 nM (active).

And the GI50 [5]?
Its GI50 is 1260 nM (inactive).

And the GI50 [6]?
The GI50 was > 100000 nM (inactive).

What about the GI50 [7] of the same molecule?
The GI50 was > 100000 nM (inactive).

And the GI50 [8]?
Its GI50 is > 100000 nM (inactive).

What about the GI50 [9] of the same molecule?
Its GI50 is 125 nM (active).

And the GI50 [10]?
The GI50 was > 27900 nM (inactive).

And the GI50 [11]?
Its GI50 is 855 nM (active).

What about the GI50 [12] of the same molecule?
The GI50 was 424 nM (active).

And the GI50 [13]?
The GI50 was 1370 nM (inactive).

What about the GI50 [14] of the same molecule?
The GI50 was > 100000 nM (inactive).

And the GI50 [15]?
Its GI50 is > 100000 nM (inactive).

And the GI50 [16]?
The GI50 was > 100000 nM (inactive).

What about the GI50 [18] of the same molecule?
The GI50 was > 100000 nM (inactive).

What about the GI50 [19] of the same molecule?
The GI50 was > 100000 nM (inactive).

What about the GI50 [58] of the same molecule?
Its GI50 is 5740 nM (inactive).

And the GI50 [20]?
Its GI50 is 13900 nM (inactive).

And the GI50 [21]?
Its GI50 is > 100000 nM (inactive).

What about the GI50 [22] of the same molecule?
Its GI50 is 8180 nM (inactive).

And the GI50 [23]?
The GI50 was > 100000 nM (inactive).

What about the GI50 [24] of the same molecule?
The GI50 was 6730 nM (inactive).

And the GI50 [25]?
The GI50 was 4170 nM (inactive).

And the GI50 [26]?
The GI50 was over 100000 nM.

What about the GI50 [27] of the same molecule?
The GI50 was > 21400 nM (inactive).

And the GI50 [28]?
Its GI50 is > 100000 nM (inactive).

What about the GI50 [29] of the same molecule?
Its GI50 is > 100000 nM (inactive).

What about the GI50 [30] of the same molecule?
Its GI50 is 68500 nM (inactive).

What about the GI50 [31] of the same molecule?
Its GI50 is 4070 nM (inactive).

And the GI50 [32]?
Its GI50 is > 100000 nM (inactive).

And the GI50 [33]?
The GI50 was > 100000 nM (inactive).

And the GI50 [34]?
Its GI50 is 2920 nM (inactive).

And the GI50 [35]?
Its GI50 is 4790 nM (inactive).

What about the GI50 [36] of the same molecule?
Its GI50 is 5460 nM (inactive).

And the GI50 [37]?
The GI50 was 1810 nM (inactive).

What about the GI50 [39] of the same molecule?
The GI50 was > 100000 nM (inactive).

What about the GI50 [41] of the same molecule?
Its GI50 is > 100000 nM (inactive).

What about the GI50 [43] of the same molecule?
Its GI50 is > 100000 nM (inactive).

What about the GI50 [44] of the same molecule?
Its GI50 is 1200 nM (inactive).

What about the GI50 [45] of the same molecule?
The GI50 was > 100000 nM (inactive).

What about the GI50 [46] of the same molecule?
Its GI50 is > 100000 nM (inactive).

What about the GI50 [47] of the same molecule?
The GI50 was 5690 nM (inactive).

And the GI50 [48]?
Its GI50 is 4670 nM (inactive).

What about the GI50 [49] of the same molecule?
Its GI50 is 2000 nM (inactive).

And the GI50 [51]?
The GI50 was 933 nM (active).

And the GI50 [52]?
The GI50 was > 100000 nM (inactive).

What about the GI50 [53] of the same molecule?
Its GI50 is 1450 nM (inactive).

And the GI50 [54]?
Its GI50 is > 20000 nM (inactive).

What about the GI50 [55] of the same molecule?
Its GI50 is > 100000 nM (inactive).

What about the GI50 [56] of the same molecule?
The GI50 was 1890 nM (inactive).

What about the GI50 [57] of the same molecule?
The GI50 was 1320 nM (inactive).
